Data reported in PubChem BioAssay AID388 (SGCOxCompounds, 2006).

These compounds were tested against 15-hydroxyprostaglandin dehydrogenase [NAD(+)] (Homo sapiens) (UniProt P15428) (assay: HPGD binders by thermal shift, biophysical, DSF, SYPRO orange, purified protein (AID 388)). Conditions: at 10 µM, buffer 10 mM HEPES, pH 7.5, NaCl 150 mM, NADH 40 µM, stronger effect = higher value.
15-hydroxyprostaglandin dehydrogenase [NAD(+)] (Homo sapiens), sequence (P15428 whole entry, looked up): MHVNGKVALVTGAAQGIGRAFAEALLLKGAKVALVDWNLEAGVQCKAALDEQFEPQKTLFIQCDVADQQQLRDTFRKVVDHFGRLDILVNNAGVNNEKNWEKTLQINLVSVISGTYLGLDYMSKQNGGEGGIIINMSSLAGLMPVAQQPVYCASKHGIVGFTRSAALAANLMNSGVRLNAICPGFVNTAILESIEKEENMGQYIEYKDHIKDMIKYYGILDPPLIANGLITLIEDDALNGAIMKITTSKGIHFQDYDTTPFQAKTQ

Row | Tm shift [Celsius] | SMILES
1 | 2.5 | CN(CCOc1ccc(CC2SC(=O)NC2=O)cc1)c1ccccn1 (stereo unspecified)

Same assay, conditions: at 10 µM, buffer 10 mM HEPES, pH 7.5, NaCl 150 mM, stronger effect = higher value

Row | SMILES | Tm shift [Celsius]
2 | O=c1c(-c2ccc(O)cc2)coc2cc(O)cc(O)c12 | 2.12
3 | C[C@@]1(c2ccc(O)cc2)CC(=O)c2c(O)cc(O)cc2O1 | 2.25
4 | O=C1NC(=O)c2c1c1c3ccccc3[nH]c1c1[nH]c3cc(Br)ccc3c21 | 2.11
5 | O=C(O)c1cccnc1Nc1cccc(C(F)(F)F)c1 | 2.1
6 | O=c1cc(-c2ccc(O)c(O)c2)oc2cc(O)cc(O)c12 | 2.19
7 | CCc1nnc(NS(=O)(=O)c2ccc(NC(=O)/C=C/c3ccc(F)cc3)cc2)s1 | 2.9
8 | CCc1nnc(NS(=O)(=O)c2ccc(NC(=O)c3ccc(Cl)cc3Cl)cc2)s1 | 2.2
9 | CC1=CC(=O)C=C(C)C1=O | 6.05
10 | Cc1c(O)cc(O)c2c1OC(c1ccc(O)c(O)c1)C(=O)C2=O (stereo unspecified) | 2.5
11 | O=c1cc(-c2ccccc2)oc2cc(O)c(O)c(O)c12 | 2.9
12 | O=C1CC(c2ccc(O)cc2)Oc2cc(O)cc(O)c21 (stereo unspecified) | 3.1

Further lines, results first:

Row | Tm shift [Celsius] | SMILES
13 | 2.28 | CCc1ccc(CCOc2ccc(CC3SC(=O)CC3=O)cc2)nc1 (stereo unspecified)
14 | 2.1 | COc1ccc2c(c1)c(CC(=O)O)c(C)n2C(=O)c1ccc(Cl)cc1
15 | 2.4 | COc1cc([C@@H]2Oc3cc([C@@H]4Oc5cc(O)cc(O)c5C(=O)[C@H]4C)ccc3O[C@H]2CO)ccc1O
16 | 2.35 | CC1(C)[C@@H](OC(=O)CCC(=O)O)CC[C@]2(C)[C@H]3C(=O)C=C4[C@@H]5C[C@@](C)(C(=O)O)CC[C@]5(C)CC[C@@]4(C)[C@]3(C)CC[C@@H]12
